Active and inactive are the calls of the source. The rule behind the calls is not given here.
Key:
[1] = system: Cryptococcus neoformans; assay: Induction of morphological changes in Cryptococcus neoformans H99 assessed as reduction in capsule thickness at 4 ug/ml incubated for 24 hrs by TEM analysis; assay type: functional, organism-based; details: dose 4.0 µg/ml
[2] = Cmax in cynomolgus monkey at 10 mg/kg, iv; assay type: ADME, organism-based, Macaca fascicularis; parameters: route intravenous, dose 10 mg/kg; details: in vivo
[3] = target: Cytochrome P450 2D6 (Homo sapiens, UniProt P10635); assay: Inhibition of CYP2D6 (unknown origin) relative to control; assay type: ADME
[4] = Cmax in dog at 10 mg/kg, po; assay type: ADME, organism-based, Canis lupus familiaris; parameters: route oral, dose 10 mg/kg; details: in vivo
[5] = system: Nakaseomyces glabratus; assay: Induction of drug resistant in Candida glabrata BG2 assessed as increase in compound IC50 at 8 to 12 times MIC; assay type: functional, organism-based
[6] = Stability in rat liver microsomes assessed as parent compound remaining after 30 mins; assay type: ADME, Microsome; details: liver microsomes, read-out: Stability
[7] = system: Candida albicans; assay: In vivo antifungal activity against Candida albicans 90028 infected in BALB/c mouse assessed as appearance of soft epidermal stratum corneum measured upto 48 hrs post infection by histopathological analysis; assay type: functional, organism-based; details: time hrs <=48
[8] = system: Nakaseomyces glabratus; assay: Additive antifungal activity against Candida glabrata BG2 assessed as assessed as FICI in presence of CSP after 48 hrs by checker board assay; assay type: functional, organism-based
[9] = system: Nakaseomyces glabratus; assay: Synergistic antifungal activity against Candida glabrata BG2 assessed as FICI in presence of AmB after 48 hrs by checker board assay; assay type: functional, organism-based
[10] = AUC(0 to t) in Sprague-Dawley rat at 2 mg/kg, iv; assay type: ADME, organism-based; parameters: dose 2 mg/kg; details: in vivo
[11] = Cmax in Sprague-Dawley rat at 10 mg/kg, po; assay type: ADME, organism-based; parameters: route oral, dose 10 mg/kg; details: in vivo
[12] = Toxicity in Sprague-Dawley rat assessed as death at 500 to 1000 mg/kg, po measured after 14 days; assay type: organism-based; details: in vivo, 336 h, dose 500-1000 mg/kg, time 14 day
[13] = Toxicity in Sprague-Dawley rat assessed as body weight gain at 500 to 1000 mg/kg, po measured after 3 days; assay type: organism-based; details: in vivo, 72 h, dose 500-1000 mg/kg, time 3 day
[14] = system: Nakaseomyces glabratus; assay: Synergistic antifungal activity against Candida glabrata BG2 assessed as FICI in presence of ICZ after 48 hrs by checker board assay; assay type: functional, organism-based
[15] = system: Candida albicans; assay: Induction of morphological changes in Candida albicans ATCC SC5314 assessed as reduction in cell wall thickness at 32 ug/ml incubated for 24 hrs by TEM analysis; assay type: functional, organism-based; details: dose 32.0 µg/ml
[16] = Stability in human plasma assessed as parent compound remaining after 30 to 120 mins; assay type: ADME, cell-free; details: time 30-120 min
[17] = AUC(0 to t) in cynomolgus monkey at 10 mg/kg, iv; assay type: ADME, organism-based, Macaca fascicularis; parameters: dose 10 mg/kg; details: in vivo
[18] = Toxicity in po dosed Sprague-Dawley rat assessed as lethal dose measured after 14 days; assay type: organism-based; details: in vivo, 336 h, time 14 day
[19] = target: Cytochrome P450 3A4 (Homo sapiens, UniProt P08684); assay: Inhibition of CYP3A4 (unknown origin) relative to control; assay type: ADME
[20] = Stability in dog hepatocytes assessed as parent compound remaining incubated for 60 mins; assay type: ADME, cell-based, Canis lupus familiaris, Hepatocyte; details: read-out: Stability
[21] = system: Trichophyton rubrum; assay: Fungicidal activity against Trichophyton rubrum KCCM60450 at 2 times MIC after 8 hrs by time-kill kinetics assay; assay type: functional, organism-based
[22] = Effect on cell wall integrity in Cryptococcus neoformans H99 assessed as activation of Mpk1 by measuring increase in Mpk1 phosphorylation ratio at 8 ug/ml after 90 mins by immunoblot analysis (reference value: 1); assay type: functional; details: dose 8 µg/ml, 1.5 h
[23] = system: Candida albicans; assay: Induction of morphological changes in Candida albicans ATCC SC5314 assessed as appearance of detached cytoplasm at 32 ug/ml incubated for 24 hrs by TEM analysis; assay type: functional, organism-based; details: dose 32.0 µg/ml
[24] = Stability in human hepatocytes assessed as parent compound remaining incubated for 60 mins; assay type: ADME, cell-based, Hepatocyte; details: read-out: Stability
[25] = system: Trichophyton rubrum; assay: Ex vivo antifungal activity against Trichophyton rubrum KCCM60450 infected in human nail assessed as reduction in ATP level at 0.5 % w/w after 24 hrs; assay type: functional; parameters: scale not given: the % may be the effect or the level left
[26] = target: Voltage-gated inwardly rectifying potassium channel KCNH2 (Homo sapiens, UniProt Q12809); assay: Inhibition of human ERG by patch clamp assay
[27] = Effect on cell wall integrity in Cryptococcus neoformans H99 assessed as increase in HXL1 activation ratio at 4 ug/ml after 2 hrs by immunoblot analysis (reference value: 1); assay type: functional; details: dose 4 µg/ml
[28] = system: Cryptococcus neoformans; assay: Fungicidal activity against Cryptococcus neoformans H99 at 8 times of MIC after 2 hrs by time-kill kinetics assay; assay type: functional, organism-based
[29] = system: Trichophyton rubrum; assay: Fungicidal activity against Trichophyton rubrum KCCM60450 at 4 ug/ml by time-kill kinetics assay; assay type: functional, organism-based; details: dose 4.0 µg/ml
[30] = Effect on cell wall integrity in Cryptococcus neoformans H99 assessed as activation of Mpk1 by measuring increase in Mpk1 phosphorylation ratio at 8 ug/ml after 60 mins by immunoblot analysis (reference value: 1); assay type: functional; details: dose 8 µg/ml, 1 h
[31] = system: Candida albicans; assay: Antifungal activity against Candida albicans ATCC SC5314 assessed as reduction in fungal growth incubated for 48 hrs by CLSI based broth microdilution method; assay type: functional
[32] = system: Candida albicans; assay: Synergistic antifungal activity against Candida albicans ATCC SC5314 assessed as FICI in presence of ICZ after 48 hrs by checker board assay; assay type: functional, organism-based
[33] = system: Aspergillus fumigatus; assay: Synergistic antifungal activity against Aspergillus fumigatus AF293 assessed as FICI in presence of AmB after 48 hrs by checker board assay; assay type: functional, organism-based
[34] = Cmax in Sprague-Dawley rat at 2 mg/kg, iv; assay type: ADME, organism-based; parameters: route intravenous, dose 2 mg/kg; details: in vivo
[35] = Stability in rabbit hepatocytes assessed as parent compound remaining incubated for 60 mins; assay type: ADME, cell-based, Oryctolagus cuniculus, Hepatocyte; details: read-out: Stability
[36] = system: Cryptococcus neoformans; assay: Synergistic antifungal activity against Cryptococcus neoformans H99 assessed as FICI in presence of AmB after 48 hrs by checker board assay; assay type: functional, organism-based
[37] = system: Cryptococcus neoformans; assay: Induction of morphological changes in Cryptococcus neoformans H99 assessed as cell wall damage at 4 to 8 ug/ml incubated for 24 hrs by TEM analysis; assay type: functional, organism-based; details: dose 4-8 µg/ml
[38] = AUC(0 to t) in Sprague-Dawley rat at 10 mg/kg, po; assay type: ADME, organism-based; parameters: dose 10 mg/kg; details: in vivo
[39] = Oral bioavailability in Sprague-Dawley rat at 10 mg/kg; assay type: ADME, organism-based; details: in vivo
[40] = Stability in human liver microsomes assessed as parent compound remaining after 30 mins; assay type: ADME, Microsome; details: read-out: Stability
[41] = AUC(0 to t) in dog at 1 mg/kg, iv; assay type: ADME, organism-based, Canis lupus familiaris; parameters: dose 1 mg/kg; details: in vivo
[42] = system: Trichophyton rubrum; assay: Fungicidal activity against Trichophyton rubrum KCCM60450 at 4 times after 2 hrs by time-kill kinetics assay; assay type: functional, organism-based
[43] = Stability in rat plasma assessed as parent compound remaining after 30 to 120 mins; assay type: ADME, cell-free; details: time 30-120 min
[44] = system: Aspergillus fumigatus; assay: Antifungal activity against Aspergillus fumigatus AF293 assessed as reduction in fungal growth incubated for 48 hrs by CLSI based broth microdilution method; assay type: functional
[45] = system: Cryptococcus neoformans; assay: Synergistic antifungal activity against Cryptococcus neoformans XW252 in presence of FK506 by checkboard assay; assay type: functional, organism-based
[46] = Effect on cell wall integrity in Cryptococcus neoformans H99 assessed as increase in HXL1 activation ratio at 8 ug/ml after 2 hrs by immunoblot analysis (reference value: 1); assay type: functional; details: dose 8 µg/ml

Cytochrome P450 3A4, sequence (P08684 whole entry): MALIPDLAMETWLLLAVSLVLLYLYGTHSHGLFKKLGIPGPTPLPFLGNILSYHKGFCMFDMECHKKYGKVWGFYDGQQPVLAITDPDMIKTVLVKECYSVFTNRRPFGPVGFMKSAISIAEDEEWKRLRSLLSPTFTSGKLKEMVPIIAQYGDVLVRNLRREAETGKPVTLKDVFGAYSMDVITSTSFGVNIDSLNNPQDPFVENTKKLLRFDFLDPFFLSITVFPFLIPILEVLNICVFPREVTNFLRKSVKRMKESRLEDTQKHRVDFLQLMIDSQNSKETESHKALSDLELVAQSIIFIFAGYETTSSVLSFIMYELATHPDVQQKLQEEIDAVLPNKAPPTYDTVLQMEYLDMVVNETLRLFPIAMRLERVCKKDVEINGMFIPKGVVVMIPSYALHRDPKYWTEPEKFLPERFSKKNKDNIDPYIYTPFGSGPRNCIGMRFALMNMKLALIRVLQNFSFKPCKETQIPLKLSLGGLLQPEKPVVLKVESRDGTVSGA
Cytochrome P450 2D6, sequence (P10635 whole entry): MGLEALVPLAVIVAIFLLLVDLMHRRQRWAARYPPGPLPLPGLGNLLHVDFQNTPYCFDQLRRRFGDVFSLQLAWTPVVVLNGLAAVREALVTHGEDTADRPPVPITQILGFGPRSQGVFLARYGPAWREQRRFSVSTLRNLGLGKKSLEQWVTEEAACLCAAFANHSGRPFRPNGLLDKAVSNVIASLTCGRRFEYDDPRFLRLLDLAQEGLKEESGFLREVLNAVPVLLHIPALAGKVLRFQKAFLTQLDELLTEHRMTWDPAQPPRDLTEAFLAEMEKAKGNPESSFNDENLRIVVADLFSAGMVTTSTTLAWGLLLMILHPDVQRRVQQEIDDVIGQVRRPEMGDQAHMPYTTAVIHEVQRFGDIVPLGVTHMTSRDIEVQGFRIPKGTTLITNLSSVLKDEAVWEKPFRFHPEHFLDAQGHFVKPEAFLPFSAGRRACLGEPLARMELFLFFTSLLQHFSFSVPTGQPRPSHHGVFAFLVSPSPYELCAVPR
Voltage-gated inwardly rectifying potassium channel KCNH2, sequence (Q12809 whole entry): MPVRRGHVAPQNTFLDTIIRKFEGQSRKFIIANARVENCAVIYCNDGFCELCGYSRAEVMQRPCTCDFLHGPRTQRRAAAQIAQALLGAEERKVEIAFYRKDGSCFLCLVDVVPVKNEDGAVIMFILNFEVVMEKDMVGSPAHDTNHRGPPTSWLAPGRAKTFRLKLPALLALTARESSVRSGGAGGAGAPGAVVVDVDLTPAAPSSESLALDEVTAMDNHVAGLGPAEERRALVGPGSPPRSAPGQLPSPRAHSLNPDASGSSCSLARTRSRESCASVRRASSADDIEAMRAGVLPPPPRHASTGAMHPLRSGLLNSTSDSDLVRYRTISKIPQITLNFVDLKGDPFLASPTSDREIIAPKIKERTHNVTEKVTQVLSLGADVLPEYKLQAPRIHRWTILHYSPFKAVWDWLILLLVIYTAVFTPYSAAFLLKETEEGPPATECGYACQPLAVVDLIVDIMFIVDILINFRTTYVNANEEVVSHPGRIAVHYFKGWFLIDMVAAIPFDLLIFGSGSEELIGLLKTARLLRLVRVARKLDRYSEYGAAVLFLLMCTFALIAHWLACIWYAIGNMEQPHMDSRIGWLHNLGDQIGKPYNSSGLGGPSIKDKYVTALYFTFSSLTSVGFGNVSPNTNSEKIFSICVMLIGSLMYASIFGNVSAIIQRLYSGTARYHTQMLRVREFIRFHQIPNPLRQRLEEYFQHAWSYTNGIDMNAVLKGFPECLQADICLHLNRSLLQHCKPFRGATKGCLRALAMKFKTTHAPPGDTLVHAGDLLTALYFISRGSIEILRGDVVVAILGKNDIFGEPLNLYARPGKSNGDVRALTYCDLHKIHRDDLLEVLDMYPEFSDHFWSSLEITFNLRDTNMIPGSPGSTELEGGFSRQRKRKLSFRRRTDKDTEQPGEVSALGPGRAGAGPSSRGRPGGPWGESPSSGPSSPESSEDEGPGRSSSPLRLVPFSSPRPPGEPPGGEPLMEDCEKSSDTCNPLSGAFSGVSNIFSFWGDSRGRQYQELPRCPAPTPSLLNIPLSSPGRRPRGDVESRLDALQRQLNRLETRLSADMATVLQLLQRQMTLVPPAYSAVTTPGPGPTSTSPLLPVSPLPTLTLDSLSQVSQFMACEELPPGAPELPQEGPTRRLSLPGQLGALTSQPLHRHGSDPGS

With `CCCC(N)C(=O)NCCc1ccc(-c2ccc(Cl)c(Cl)c2)cc1.Cl` (racemic) as the molecule, how does the Activity [1] read?
The Activity was “Active”.

And the Cmax [2]?
The Cmax was 1.08 µg/mL.

And the “inhibition (INH)” value [3]?
The value was 88.7%.

And the Cmax [4]?
The Cmax was 4.39 µg/mL.

What about the Activity [5] of the same molecule?
The Activity was “inactive”.

What about the remaining at 0.5 h [6] of the same molecule?
The remaining at 0.5 h was 72.3%.

And the Activity [7]?
The Activity was “Active”.

What about the Activity [8] of the same molecule?
Its Activity is “Active”.

What about the Activity [9] of the same molecule?
The Activity was “Active”.

And the AUC(0-t) [10]?
The AUC(0-t) was 0.265 µg·h/mL.

What about the Cmax [11] of the same molecule?
The Cmax was 0.0973 µg/mL.

And the Activity [12]?
Its Activity is “Non-Toxic”.

What about the Activity [13] of the same molecule?
The Activity was “Non-Toxic”.

What about the Activity [14] of the same molecule?
The Activity was “inactive”.

And the Activity [15]?
Its Activity is “Active”.

What about the Stability [16] of the same molecule?
The Stability was 97%.

What about the AUC(0-t) [17] of the same molecule?
Its AUC(0-t) is 7.15 µg·h/mL.

And the Activity [18]?
The Activity was 2000 mg/kg.

What about the “inhibition (INH)” value [19] of the same molecule?
The value was 43.7%.

What about the remaining at 1 h [20] of the same molecule?
The remaining at 1 h was 61.1%.

And the Activity [21]?
Its Activity is “Active”.

What about the Ratio [22] of the same molecule?
Its Ratio is 3.32.

And the Activity [23]?
The Activity was “Active”.

What about the remaining at 1 h [24] of the same molecule?
The remaining at 1 h was 79.1%.

What about the Activity [25] of the same molecule?
Its Activity is 32.72%.

And the IC50 [26]?
The IC50 was 39.5 µM.

And the Ratio [27]?
Its Ratio is 1.12.

What about the Activity [28] of the same molecule?
The Activity was “Active”.

And the Activity [29]?
Its Activity is “Active”.

What about the Ratio [30] of the same molecule?
The Ratio was 3.62.

What about the MIC [31] of the same molecule?
Its MIC is 2 mg/L.

What about the Activity [32] of the same molecule?
The Activity was “inactive”.

And the Activity [33]?
The Activity was “Active”.

And the Cmax [34]?
The Cmax was 0.191 µg/mL.

What about the remaining at 1 h [35] of the same molecule?
Its remaining at 1 h is 64.6%.

What about the Activity [36] of the same molecule?
The Activity was “Active”.

And the Activity [37]?
Its Activity is “Active”.

And the AUC(0-t) [38]?
Its AUC(0-t) is 0.527 µg·h/mL.

What about the bioavailability [39] of the same molecule?
The bioavailability was 39.8%.

And the remaining at 0.5 h [40]?
Its remaining at 0.5 h is 90%.

And the AUC(0-t) [41]?
The AUC(0-t) was 2.68 µg·h/mL.

And the Activity [42]?
Its Activity is “Active”.

And the Stability [43]?
The Stability was 96.2%.

And the MIC [44]?
The MIC was 4 mg/L.

And the Activity [45]?
The Activity was “Active”.

And the Ratio [46]?
Its Ratio is 1.57.

From ChEMBL document CHEMBL5030558, “Optimization and Evaluation of Novel Antifungal Agents for the Treatment of Fungal Infection” (J Med Chem, 2021)
